Reference: patent publication US20190053495A1, “POLYMERIC TOPICAL ANTISEPTIC COMPOUND AND METHOD OF USE” (priority 2017, published 2019)

What was measured:
[1] = Film thickness of skin scaffold by Dual Polarization Interferometry; assay type: physicochemical
Source text: Film thickness of skin scaffold of polymer 1-Octadecanaminium NN Dimethyl (3 Trihydroxysilyl)propyl chloride polymer with Dual Polarization interferometry.

[2] = 2 g/kg applied to 10% of shaven skin, ten test animals, Study Day 1; cited from earlier work

| MASS ([1]; 40 seconds post injection) [ngmm^−2] | THICKNESS ([1]; 40 seconds post injection) [nm] | MASS ([1]; 10 minutes post injection) [ngmm^−2] | THICKNESS ([1]; 10 minutes post injection) [nm] | Compound | Skin reaction at the application site [2] |
| --- | --- | --- | --- | --- | --- |
| 3.83 | 41.31 | 3.76 | 33.51 | CCCCCCCCCCCCCCCCCC[N+](C)(C)CCC[Si](OC)(OC)OC.[Cl-] [ODTMSPC, 1-Octadecanaminium, N,N, Dimethyl-N-[(3-trimethoxysilyl)propyl] chloride] | – |
| – | – | – | – | alkyldimethylbenzylammonium chloride [Benzalkonium chloride] | all test animals exhibit erythema, and edema at the application site |
